Legend:
glucosidase I = target: T1, glucosidase I (Bos taurus, UniProt A0A3Q1M9D9); assay: Assay for glucosidase I activity (14C-Glc3Man9GlcNAc2 substrate, ConA-Sepharose, scintillation counting); format: biochemical; conditions: affinity purified glucosidase I from calf pancreas microsomes; for inhibition at 1000 µM: at 1 mM concentration, read-out: inhibition of glycosidase I activity
T1 construct: Glucosidase I was solubilized from calf pancreas microsomes; from tissue
T1 sequence (A0A3Q1M9D9 1-839): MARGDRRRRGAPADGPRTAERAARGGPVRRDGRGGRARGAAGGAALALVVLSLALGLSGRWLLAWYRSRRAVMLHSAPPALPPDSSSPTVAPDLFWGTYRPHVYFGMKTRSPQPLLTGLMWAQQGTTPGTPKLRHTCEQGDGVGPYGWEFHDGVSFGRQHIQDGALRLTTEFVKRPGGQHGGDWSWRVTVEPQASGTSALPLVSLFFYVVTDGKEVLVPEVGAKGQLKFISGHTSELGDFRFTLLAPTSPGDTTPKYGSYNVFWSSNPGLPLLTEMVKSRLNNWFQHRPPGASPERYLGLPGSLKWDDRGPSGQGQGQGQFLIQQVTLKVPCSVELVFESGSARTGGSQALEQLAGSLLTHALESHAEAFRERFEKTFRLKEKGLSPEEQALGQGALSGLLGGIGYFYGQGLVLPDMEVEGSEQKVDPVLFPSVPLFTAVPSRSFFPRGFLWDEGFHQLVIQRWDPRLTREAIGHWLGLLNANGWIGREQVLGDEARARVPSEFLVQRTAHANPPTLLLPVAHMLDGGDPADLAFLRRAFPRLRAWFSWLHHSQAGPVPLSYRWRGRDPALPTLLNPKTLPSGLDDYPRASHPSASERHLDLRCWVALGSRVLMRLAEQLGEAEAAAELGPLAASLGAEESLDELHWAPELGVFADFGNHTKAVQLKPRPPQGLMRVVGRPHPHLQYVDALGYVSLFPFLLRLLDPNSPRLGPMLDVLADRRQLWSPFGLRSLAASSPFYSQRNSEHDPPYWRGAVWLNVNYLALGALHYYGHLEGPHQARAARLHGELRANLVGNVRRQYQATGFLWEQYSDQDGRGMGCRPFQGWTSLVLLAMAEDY
Description: Some of the compounds which are modified analogues of the trisaccharides corresponding to the end tail of precursor oligosaccharides Glc3 Man9 GlcNAc2 -PP-Dol, were evaluated as inhibitors of glucosidase I activity. Glucosidase I was purified by a literature procedure as follows. To prepare an affinity matrix, carboxypentyl-deoxynojirimycin was coupled with Affigel 102 according to Shailubhai et al^19. Glucosidase I was solubilized from calf pancreas microsomes, and purified from glucosidase II activity by affinity chromatography according to the same authors.
^14 C-labelled Glc3 Man9 GlcNAc2 -PP-Dol was prepared by the incubation of UDP-[^14 C]Glc with calf pancreas microsomes as described by Herscovien et al^40. Glc3 Man9 GlcNAc2 was released by mild acid hydrolysis and purified by BioGel P4 chromatography.
Affinity purified glucosidase I was assayed as described by Saunier et al.^41 by adsorption of undigested substrate and oligosaccharide product to ConA-Sepharose and scintillation counting of [^14 C]Glc in the column eluent. Oligosaccharides as potential inhibitors were evaluated using castanospermine as a baseline inhibitor.

glucosidase = conditions: cited from earlier work

| inhibition at 1000 µM (glucosidase I) | SMILES | further results |
| --- | --- | --- |
| 100% | COC(=O)CCCCCCCCO[C@H]1O[C@H](CO)[C@@H](O)[C@H](O[C@H]2O[C@H](CO)[C@@H](O)[C@H](O)[C@H]2O[C@H]2O[C@H](CO)[C@@H](O)[C@H](O)[C@H]2O)[C@H]1O [Compound 40, 8-methoxycarbonyloctyl 3-O-[2-O-(α-D-glucopyranosyl)-α-D-glucopyranosyl]-α-D-glucopyranoside] |  |
| 50% | COC(=O)CCCCCCCCO[C@H]1O[C@H](CO)[C@@H](O)[C@H](O[C@H]2O[C@H](CO)[C@@H](O)[C@H](O)[C@H]2O[C@H]2O[C@H](CO)[C@@H](O)C[C@H]2O)[C@H]1O [Compound 45, 8-methoxycarbonyloctyl 3-O-[2-O-(3-deoxy-α-D-glucopyranosyl)-α-D-glucopyranosyl]-α-D-glucopyranoside] |  |
|  | COC(=O)CCCCCCCCO[C@H]1O[C@H](CO)[C@@H](O)[C@H](O[C@H]2O[C@H](CO)[C@@H](O)[C@H](O)[C@H]2O[C@H]2O[C@H](C)[C@@H](O)[C@H](O)[C@H]2O)[C@H]1O [Compound 49, 8-Methoxycarbonyl 3-O-[2-O-(6deoxy-α-D-glucopyranosyl)-α-D-glucopyranosyl]-α-D-glucopyranoside] | glucosidase I inhibitory activity (result in words) (glucosidase I): completely eliminated |
|  | OC[C@H]1NC[C@H](O)[C@@H](O)[C@@H]1O [deoxynojirimycin] | concentration required to induce the inhibitory effect in vitro (glucosidase): at least 1 mmol/l |

Reference: US5929037A, “Modified α-D-Glc.rho.-(1-2)-α-D-Glc.rho.-(1-3)-α-D-Glc.rho.-ana logues” (Alberta Research Council, priority 1995, dated 1999)
